# Source: patent US20200199174A1, “NOVEL FLUORESCENT LABELING METHOD” (priority 2017, published 2020)
# Key:
# [1] = literature (Zheng et al. 2014); cited from earlier work
# 5D4 = assay: Fluorescence change characteristics of fluorophore-DNP pair in presence and absence of 5D4; assay type: biochemical, mouse; conditions: recombinant 5D4 expressed/purified in E. coli
# Protocol: The anti-DNP scFv was expressed and purified as a fusion protein of maltose-binding protein. Escherichia coli BL21 (DE3) was transformed with the pMalc5E vector (pMalc5E-scFv) into which the purification object scFv sequence was introduced, and was cultured overnight on an LB medium plate including 100 μg/mL of ampicillin. A single colony was picked up and cultured overnight in 5 mL of a liquid LB medium including 100 μg/mL of ampicillin, and 1 mL of the resultant culture liquid was transferred to 100 mL of LB medium including 100 μg/mL of ampicillin. Shake culturing was performed at 200 rpm and a temperature of 37° C. until an optical density at 600 nm of 0.8 was reached, and after shake culturing was performed for 30 minutes at 15° C., IPTG was added to give a final concentration of 0.5 mM, and shake culturing was continued overnight. The E. coli were recovered after culturing and were disrupted using a sonicator. […] An eluate was replaced with PBS, and yield was quantified by the Bradford method, after which the eluate was subjected to the measurements described below.
# RNA was extracted from the hybridomas of the resultant four clones, and cDNA fragments of the variable regions of the light chains and heavy chains of monoclonal antibodies were obtained by reverse transcription. The cDNA fragments of the variable regions of the light chains and heavy chains were connected via a linker sequence by overlap PCR, and scFv constructs were constructed only from subclones (4E10 and 5D4) derived from wells 1E10 and 3B12, respectively. […] The nucleic acid sequence of the cDNA sequence coding for 5D4 was identified by sequencing (SEQ ID NO: 8), an amino acid sequence determined from the result thereof was analyzed using the IMGT database (http://www.imgt.org/), and a […] region was specified (FIG. 4).
# This fluorescence characteristic is similar to that of Cy5 dye, which is widely used in fluorescence imaging in cells. In the presence of 5D4, the fluorescence intensity of 6SiR-DNP was increased by a factor of 98 relative to the fluorescence intensity thereof in the absence of 5D4 (FIG. 6B). When fluorescence quantum yield of 6SiR-DNP in a state in which 6SiR-DNP is bound to 5D4 was measured, the fluorescence quantum yield in the presence of an excess of 5D4 was 0.57. This value for the fluorescence quantum yield is large, and is equal to or greater than that of Cy5 (quantum yield=0.2-0.4) and Cy5.5 (quantum yield=0.24), which are also highly versatile fluorescent dyes in cell labeling experiments (Q. Zheng et al., Ultra-stable organic fluorophores for single-molecule research. Chem Soc Rev 43, 1044-1056 (2014).).
# MBP-5D4 = assay: Dissociation rate constant of anti-DNP scFv and probe (stopped-flow, competition with DNP); assay type: binding, mouse; conditions: 6DCF-DNP and 5D4
# Protocol: (§1) A flow channel in a stopped-flow apparatus (Bio-logic) was filled with a pretreatment liquid in which 1% w/v gelatin was dissolved in a phosphate buffer solution (pH 7.4) (PBS), and blocking was performed by leaving the apparatus at room temperature for at least 30 minutes, after which the flow channel was thoroughly washed with Milli-Q water. Using the apparatus, PBS in which MBP-5D4 or a variant thereof at a concentration of 100 nM or less and a probe at a concentration of 1 μM were dissolved, and PBS in which 100 μM DNP as a competitive substance was dissolved were mixed at a 1:1 ratio, and a fluorescence change was measured. At this time, the excitation/fluorescence wavelengths used were 510 nm/529-556 nm for the DCF probe and 650 nm/672-712 nm for the SiR probe, and measurement was performed under conditions of a temperature of 25-27C. A dissociation rate constant koff was calculated by fitting the fluorescence intensity I(t) observed with respect to time t using formula (1) below (FIG. 13 and Table 1).
# I(t)=c1·e^−k^off^t+c2·t+c3 Formula (1):
# In the formula cn (n=1-3) is a constant.
# 5D4 (Y96F) = assay: Dissociation rate constant of anti-DNP scFv mutant and probe (stopped-flow, competition with DNP); assay type: binding, mouse
# Description: (§2) An amino acid mutation was introduced into an MBP-scFv protein coding region by circular PCR with pMalc5E-5D4 as a template, using a thermostable polymerase KOD Plus (TOYOBO) and forward and reverse primers including a codon modified to correspond to the desired amino acid mutation. The resultant linear PCR product was circularized using a Ligation Kit Version 2 (TAKARA), and an MBP-scFv mutant expression construct was obtained.
# as §1, with “A dissociation rate constant koff was calculated by fitting the fluorescence intensity I(t) observed with respect to time t using formula (1) below (FIG. 13 and Table 1).” left out
# V94A mutant = assay: Dissociation rate of alanine-scanning mutant and probe (competition experiments with DNP); assay type: binding, mouse
# Description: as §2
# as §1, with “A dissociation rate constant koff was calculated by fitting the fluorescence intensity I(t) observed with respect to time t using formula (1) below (FIG. 13 and Table 1).” left out
# [2] = test system: 5D4 fusion protein with TagRFP in HEK293T cells; assay: Expression test of anti-DNP scFv in cultured cells, fluorescent labeling of cytoplasm; assay type: cell-based; conditions: 1 μM, 10 minutes room temperature, washed with HBS, HEK293T cells expressing TagRFP-5D4
# Protocol: HEK293T cells and HeLa cells were cultured in Dulbecco's Modified Eagle's Medium (DMEM, Wako) including 10% fetal bovine serum (FBS, SIGMA) at a carbon dioxide concentration of 5% and a temperature of 37° C.
# Gene transfer into HeLa cells was performed using lipofection. For the HeLa cells under culture in a 24-well dish, 25 μL of Opti-MEM I (GIBCO) to which 0.5 μg of a plasmid had been added was added to a mixed solution of 2 μL of Lipofectamine 2000 (Invitrogen) and 25 μL of Opti-MEM I and incubated for five minutes at room temperature. This mixture was added to 500 μL of a medium 90-100% confluent with HEK293T cells and HeLa cells, and culturing was performed at 37° C. at a carbon dioxide concentration of 5%. Cell concentration was diluted to 1/10 5 to 8 hours after transfection, and cells were re-seeded on a glass dish. Cells were subjected to various imaging experiments after 24 hours had passed since transfection.
# The 5D4 clone for which a fluorescence-increasing effect of the scFv on the fluorophore-DNP pair was observed was expressed in HEK293T cells as a fusion protein with the fluorescent protein TagRFP, and the state of expression of the scFv in the cells or the propriety of fluorescent labeling of cytoplasm by the fluorophore-DNP pair was evaluated. […]
compound,measurement,setting,value
CCN1/C(=C/C=C/C=C/C2=[N+](CCCCCC(=O)O)c3ccc(S(=O)(=O)O)cc3C2(C)C)C(C)(C)c2cc(S(=O)(=O)[O-])ccc21 [Cy5],quantum yield,[1],0.2-0.4
"CN(CC(=O)NCCOCCOCCNc1ccc([N+](=O)[O-])cc1[N+](=O)[O-])C(=O)c1ccccc1-c1c2cc(Cl)c(=O)cc-2oc2cc(O)c(Cl)cc12 [DCF-DNP, 2-(2,7-dichloro-6-hydroxy-3-oxo-3H-xanthene-9-yl)-N-(2-((2-(2-(2-((2,4-dinitrophenyl)amino)ethoxy)ethoxy)ethyl)amino)-2-oxoethyl)-N-methylbenzamide]",increase in fluorescence intensity,5D4,about 10 times
"O=C(NCCOCCOCCNc1ccc([N+](=O)[O-])cc1[N+](=O)[O-])c1ccc(C(=O)O)c(-c2c3cc(Cl)c(=O)cc-3oc3cc(O)c(Cl)cc23)c1 [Probe 6DCF-DNP, 2-(2,7-dichloro-6-hydroxy-3-oxo-3H-xanthene-9-yl)-4-((2-(2-(2-((2,4-dinitrophenyl)amino)ethoxy)ethoxy)ethyl)carbamoyl)benzoate]",dissociation rate constant (koff) for a fluorescence-OFF state,MBP-5D4,0.014 s⁻¹
same,dissociation rate,5D4 (Y96F); Y96F mutant,1.1 s⁻¹
same,dissociation rate made faster relative to original,5D4 (Y96F); Y96F mutant and 6DCF-DNP vs original 5D4,100 times
same,dissociation rate,V94A mutant; V94A mutant and 6DCF-DNP,0.31 s⁻¹
same,rate increase relative to the original rate,V94A mutant; V94A mutant and 6DCF-DNP vs original 5D4,25 times
"CC(=O)Oc1cc2c(cc1F)C1(OC(=O)c3ccc(C(=O)NCCOCCOCCNc4ccc([N+](=O)[O-])cc4[N+](=O)[O-])cc31)c1cc(F)c(OC(C)=O)cc1O2 [Probe 6OGdiac-DNP, 6-((2-(2-(2-((2,4-dinitrophenyl)amino)ethoxy)ethoxy)ethyl)carbamoyl)-2′,7′-difluoro-3-oxo-3H-spiro[isobenzofuran-1,9′-xanthene]-3′,6′-diyl diacetate]",green fluorescence in cells,[2],confirmed only in the cytoplasm of TagRFP-positive HEK293T cells
Cy5.5,quantum yield,[1],0.24
